# Test results: publication PMC7734281, “Functionalized Oxoindolin Hydrazine Carbothioamide Derivatives as Highly Potent Inhibitors of Nucleoside Triphosphate Diphosphohydrolases” (Frontiers in Pharmacology, 2020)
# What was measured:
# Format in all cases: biochemical
# m-NTPDase2 = target: T1, m-NTPDase2 (Mus musculus, UniProt O55026); test: m-NTPDase2 inhibition, malachite green assay; conditions: for inhibition at 100 µM: compound 100 µM; for IC50: mean ± SEM of three independent experiments
# T1 construct: made in house; host or cells: COS-7 cells, transient transfection; crude protein extract after sonication
# T1 sequence (O55026 1-495): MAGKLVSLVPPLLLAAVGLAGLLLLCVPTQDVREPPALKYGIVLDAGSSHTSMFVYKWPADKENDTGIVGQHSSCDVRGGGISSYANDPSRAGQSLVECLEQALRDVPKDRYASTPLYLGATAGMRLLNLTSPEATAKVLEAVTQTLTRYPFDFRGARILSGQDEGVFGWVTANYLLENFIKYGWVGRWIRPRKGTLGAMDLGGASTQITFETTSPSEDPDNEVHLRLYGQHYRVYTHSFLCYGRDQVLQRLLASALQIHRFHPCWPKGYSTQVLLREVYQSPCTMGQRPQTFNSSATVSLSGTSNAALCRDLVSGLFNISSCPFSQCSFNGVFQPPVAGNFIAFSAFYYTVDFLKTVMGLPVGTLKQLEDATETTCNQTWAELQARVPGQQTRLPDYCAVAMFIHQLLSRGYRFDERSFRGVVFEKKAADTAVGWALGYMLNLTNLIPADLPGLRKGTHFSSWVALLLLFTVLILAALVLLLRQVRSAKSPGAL
# Method: (§1) COS-7 cells were transfected with plasmids expressing human or mouse NTPDases1, -2, -3, and -8 as previously described ([Levesque et al., 2007]; [Lecka et al., 2014]) Briefly, the confluent cells were transferred to Dulbecco’s Modified Eagle’s Medium containing no fetal bovine serum. Then, these cells were incubated with plasmid DNA (6 µg) and Lipofectamine reagent (24 µl) at 37°C. After 5 h, transfection was terminated with the addition of an equal volume of DMEM/F-12 (supplemented with 20% FBS) and cells were collected by harvesting after 40–72 h.
# (§2) To prepare protein extracts, transfected COS-7 cells were washed three times with tris-saline buffer while temperature was maintained at 4°C. Then cells were scraped and resuspended in harvesting buffer containing 95 mM NaCl, 45 mM tris and 0.1 mM phenylmethylsulfonyl fluoride (pH 7.5). Cells were again washed twice by centrifugation for 5 min at 300 × g at 4°C and then resuspended in harvesting buffer (supplemented with 10 μg ml aprotinin). Following sonication, cellular debris was isolated by 10 min centrifugation at 300 g at 4°C. Subsequently, supernatant was removed very carefully and protein concentration was determined by using Bradford microplate assay while using the bovine serum albumin as a standard ([Bradford, 1976]).
# (§3) The inhibitory effects of synthesized compounds on h-NTPDase1, -2, -3, and -8 were determined as described previously, although with slight modifications ([Martín-Satué et al., 2009]). Assay was conducted in a reaction medium containing 50 mM tris-HCl and 5 mM CaCl2 (pH 7.4). All the test compounds were dissolved in dimethyl sulfoxide (DMSO, 10%) and initially screened at a concentration of 100 µM. A reaction mixture containing 55 µl of assay buffer, 10 µl of test compound solution and 10 µl of h-NTPDase1 (58 ng/well) or h-NTPDase2 (79 ng/well) or h-NTPDase3 (163 ng/well) or h-NTPDase8 (66 ng/well) was incubated at 37°C for 10 min. Following the incubation, a 10 µl solution of adenosine triphosphate (ATP, 100 µm) was added as substrate and reaction mixture was again incubated for 15 min at 37°C. The reaction was stopped by adding malachite green reagent (15 µl) and placed at room temperature for 4 to 6 min. Finally, absorbance was measured at 630 nm by using Omega FLUOstar microplate reader (BMG Labtech, Ortenberg, Germany) and % inhibitions were calculated. For compounds showing more than 50% inhibition of any isozyme, dose response curves were generated and their IC50 values were determined. Three separate enzyme inhibition assays were carried out in triplicate and dose-response curve were generated by using PRISM 5.0 (GraphPad, San Diego, United States).
# (§4) Same procedure was adopted to determine the inhibitory effects of compounds on mouse NTPDases (m-NTPDases). However, the amount of protein used was as follows: m-NTPDase1 (82 ng/well), m-NTPDase2 (57 ng/well), m-NTPDase3 (110 ng/well) and m-NTPDase8 (79 ng/well)
# h-NTPDase2 = target: T2, h-NTPDase2 (Homo sapiens, UniProt Q9Y5L3); test: h-NTPDase2 inhibition, malachite green assay; conditions: for inhibition at 100 µM: compound 100 µM; for IC50: ATP 100 µM substrate, mean ± SEM of three independent experiments
# T2 construct: made in house; host or cells: COS-7 cells, transient transfection; crude protein extract after sonication
# T2 sequence (Q9Y5L3 1-495): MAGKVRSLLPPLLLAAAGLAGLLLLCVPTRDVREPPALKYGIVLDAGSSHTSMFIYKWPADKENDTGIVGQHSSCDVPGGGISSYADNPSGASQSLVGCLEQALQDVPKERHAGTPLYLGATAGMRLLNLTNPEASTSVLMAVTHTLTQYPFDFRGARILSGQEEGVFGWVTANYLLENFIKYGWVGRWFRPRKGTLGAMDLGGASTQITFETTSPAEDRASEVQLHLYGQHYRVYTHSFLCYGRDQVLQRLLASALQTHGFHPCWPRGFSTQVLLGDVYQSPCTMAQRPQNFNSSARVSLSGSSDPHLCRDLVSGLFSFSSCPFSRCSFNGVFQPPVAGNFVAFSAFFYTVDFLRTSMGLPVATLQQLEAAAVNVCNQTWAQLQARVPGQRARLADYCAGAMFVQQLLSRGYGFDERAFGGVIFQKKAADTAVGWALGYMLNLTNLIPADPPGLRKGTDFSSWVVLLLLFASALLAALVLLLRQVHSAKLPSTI
# Method: as §1, §2, §3
# m-NTPDase8 = target: T3, m-NTPDase8 (Mus musculus, UniProt Q8K0L2); test: m-NTPDase8 inhibition, malachite green assay; conditions: for inhibition at 100 µM: compound 100 µM; for IC50: mean ± SEM of three independent experiments
# T3 construct: made in house; host or cells: COS-7 cells, transient transfection; crude protein extract after sonication
# T3 sequence (Q8K0L2 1-497): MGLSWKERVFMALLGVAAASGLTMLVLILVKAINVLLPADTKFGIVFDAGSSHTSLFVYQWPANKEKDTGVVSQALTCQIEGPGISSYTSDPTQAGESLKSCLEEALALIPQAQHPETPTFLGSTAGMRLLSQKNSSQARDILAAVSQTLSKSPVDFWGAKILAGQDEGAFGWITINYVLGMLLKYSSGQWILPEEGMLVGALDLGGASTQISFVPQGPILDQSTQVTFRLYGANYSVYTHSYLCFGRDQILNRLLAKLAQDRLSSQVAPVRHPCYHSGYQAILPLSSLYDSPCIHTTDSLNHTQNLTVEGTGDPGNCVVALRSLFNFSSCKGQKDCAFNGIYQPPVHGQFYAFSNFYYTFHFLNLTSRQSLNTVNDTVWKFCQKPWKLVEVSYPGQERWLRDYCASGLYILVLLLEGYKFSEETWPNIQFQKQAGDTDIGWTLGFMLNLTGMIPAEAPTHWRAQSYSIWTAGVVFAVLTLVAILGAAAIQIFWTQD
# Method: as §1, §2, §3, §4
inhibition at 100 µM (m-NTPDase2) [%],inhibition at 100 µM (h-NTPDase2) [%],inhibition at 100 µM (m-NTPDase8) [%],Ki (m-NTPDase2) [µM],IC50 (m-NTPDase2) [µM],Ki (h-NTPDase2) [µM],IC50 (h-NTPDase2) [µM],IC50 (m-NTPDase8) [µM],Ki (m-NTPDase8) [µM],SMILES
42,24,28,–,–,–,–,–,–,"O=C1Nc2ccccc2/C1=N/NC(=S)Nc1ccccc1 [8a, (Z)-2-(2-oxoindolin-3-ylidene)-N-phenylhydrazine-1-carbothioamide]"
36,29,36,–,–,–,–,–,–,"O=C1Nc2ccccc2/C1=N/NC(=S)Nc1cccc(Cl)c1 [8g, (Z)-N-(3-chlorophenyl)-2-(2-oxoindolin-3-ylidene)hydrazine-1-carbothioamide]"
–,–,26,0.04,0.15 ± 0.01,0.17,0.41 ± 0.03,–,–,"Cc1cccc(C)c1NC(=S)N/N=C1\C(=O)Nc2ccccc21 [8i, (Z)-N-(2,6-dimethylphenyl)-2-(2-oxoindolin-3-ylidene)hydrazine-1-carbothioamide]"
31,17,28,–,–,–,–,–,–,"Cc1ccc(NC(=S)N/N=C2\C(=O)Nc3ccccc32)cc1 [8h, (Z)-2-(2-oxoindolin-3-ylidene)-N-(p-tolyl)hydrazine-1-carbothioamide]"
31,–,30,–,–,–,–,–,–,"O=C1Nc2ccccc2/C1=N/NC(=S)Nc1ccc([N+](=O)[O-])cc1 [8b, (Z)-N-(4-nitrophenyl)-2-(2-oxoindolin-3-ylidene)hydrazine-1-carbothioamide]"
36,46,36,–,–,–,–,–,–,"O=C1Nc2ccccc2/C1=N/NC(=S)Nc1ccc(Cl)cc1 [8c, (Z)-N-(4-chlorophenyl)-2-(2-oxoindolin-3-ylidene)hydrazine-1-carbothioamide]"
27,–,32,–,–,0.04,0.11 ± 0.08,–,–,"COc1ccc(OC)c(NC(=S)N/N=C2\C(=O)Nc3ccccc32)c1 [8j, (Z)-N-(2,5-dimethoxyphenyl)-2-(2-oxoindolin-3-ylidene)hydrazine-1-carbothioamide]"
34,< 50,38,–,–,–,–,–,–,"O=C1Nc2ccccc2/C1=N/NC(=S)NCc1ccccc1 [8f, (Z)-N-benzyl-2-(2-oxoindolin-3-ylidene)hydrazine-1-carbothioamide]"
29,–,24,–,–,0.07,0.16 ± 0.01,–,–,"COc1ccc(NC(=S)NNC2=c3ccccc3=NC2=O)cc1 [8k, (Z)-N-(4-methoxyphenyl)-2-(2-oxoindolin-3-ylidene)hydrazine-1-carbothioamide]"
–,–,–,5.67,21 ± 2,9.92,24.1 ± 3.01,> 100,–,"Cc1ccc(C(=O)Nc2ccc(S(=O)(=O)O)c3cc(S(=O)(=O)O)cc(S(=O)(=O)O)c23)cc1NC(=O)c1cccc(NC(=O)Nc2cccc(C(=O)Nc3cc(C(=O)Nc4ccc(S(=O)(=O)O)c5cc(S(=O)(=O)O)cc(S(=O)(=O)O)c45)ccc3C)c2)c1 [Suramin, reference compound]"
–,42,35,0.41,1.5 ± 0.11,–,–,–,–,"CCNC(=S)N/N=C1\C(=O)Nc2ccccc21 [8m, (Z)-N-ethyl-2-(2-oxoindolin-3-ylidene)hydrazine-1-carbothioamide]"
–,< 50,13,0.05,0.2 ± 0.01,–,–,–,–,"O=C1Nc2ccccc2/C1=N/NC(=S)Nc1c(F)cccc1F [8l, (Z)-N-(2,6-difluorophenyl)-2-(2-oxoindolin-3-ylidene)hydrazine-1-carbothioamide]"
29,< 50,–,–,–,–,–,3.8 ± 0.21,0.44,"COc1cccc(NC(=S)N/N=C2\C(=O)Nc3ccccc32)c1 [8e, (Z)-N-(3-methoxyphenyl)-2-(2-oxoindolin-3-ylidene)hydrazine-1-carbothioamide]"
27,48,–,–,–,–,–,1.45 ± 0.12,0.17,"O=C1Nc2ccccc2/C1=N/NC(=S)Nc1ccc(F)cc1 [8d, (Z)-N-(4-fluorophenyl)-2-(2-oxoindolin-3-ylidene)hydrazine-1-carbothioamide]"
